Data taken from ChEMBL document CHEMBL4130577, “Platanic acid: A new scaffold for the synthesis of cytotoxic agents” (Eur J Med Chem, 2018).
Active and inactive are the calls of the source. The rule behind the calls is not given here.

Columns and labels:
[1] = tested on: A2780; assay: Induction of apoptosis in human A2780 cells assessed as live cells at 8 uM after 24 hrs by Annexin V-FITC/propidium iodide staining based flow cytometry (reference value: 88.7%); assay type: functional
[2] = tested on: A2780; assay: Cell cycle arrest in human A2780 cells at 8 uM after 24 hrs by propidium iodide staining based flow cytometry; assay type: functional
[3] = tested on: A2780; assay: Induction of apoptosis in human A2780 cells assessed as late apoptotic cells at 8 uM after 24 hrs by Annexin V-FITC/propidium iodide staining based flow cytometry (reference value: 6.6%); assay type: functional
[4] = tested on: A2780; assay: Induction of apoptosis in human A2780 cells assessed as necrotic cells at 8 uM after 24 hrs by Annexin V-FITC/propidium iodide staining based flow cytometry (reference value: 1.1%); assay type: functional
[5] = tested on: A549; assay: Cytotoxicity against human A549 cells after 96 hrs by SRB assay; assay type: functional, cell-based; settings: A549, 96 h
[6] = tested on: HT-29; assay: cells; settings: Homo sapiens, HT-29, 96 h
Description: Cytotoxicity against human HT-29 cells after 96 hrs by SRB assay

[7] = tested on: A2780; assay: Induction of apoptosis in human A2780 cells assessed as increase in caspase-3 activity at 8 uM after 24 hrs by flow cytometry; assay type: functional, cell-based
[8] = tested on: MCF7; assay: Cytotoxicity against human MCF7 cells after 96 hrs by SRB assay; assay type: functional, cell-based; settings: MCF7, 96 h
[9] = tested on: 518A2; assay: Cytotoxicity against human 518A2 cells after 96 hrs by SRB assay; assay type: functional, cell-based; settings: 518A2, 96 h
[10] = tested on: NIH3T3; assay: Cytotoxicity against mouse NIH/3T3 cells after 96 hrs by SRB assay; assay type: cell-based; settings: NIH3T3, 96 h
[11] = tested on: A2780; assay: Induction of apoptosis in human A2780 cells assessed as early apoptotic cells at 8 uM after 24 hrs by Annexin V-FITC/propidium iodide staining based flow cytometry (reference value: 3.5%); assay type: functional
[12] = tested on: A2780; assay: Cytotoxicity against human A2780 cells assessed as morphological changes at 8 uM after 24 hrs by acridine orange/propidium iodide staining based fluorescence microscopic method; assay type: functional, cell-based
[13] = tested on: A2780; assay: Cytotoxicity against human A2780 cells after 96 hrs by SRB assay; assay type: functional, cell-based; settings: A2780, 96 h
[14] = tested on: A2780; assay: Induction of apoptosis in human A2780 cells assessed as live cells at 5 uM after 24 hrs by Annexin V-FITC/propidium iodide staining based flow cytometry (reference value: 88.7%); assay type: functional
[15] = tested on: A2780; assay: Cell cycle arrest in human A2780 cells at 5 uM after 24 hrs by propidium iodide staining based flow cytometry; assay type: functional
[16] = tested on: A2780; assay: Induction of apoptosis in human A2780 cells assessed as early apoptotic cells at 5 uM after 24 hrs by Annexin V-FITC/propidium iodide staining based flow cytometry (reference value: 3.5%); assay type: functional
[17] = tested on: A2780; assay: Induction of apoptosis in human A2780 cells assessed as increase in caspase-3 activity at 5 uM after 24 hrs by flow cytometry; assay type: functional, cell-based
[18] = tested on: A2780; assay: Induction of apoptosis in human A2780 cells assessed as necrotic cells at 5 uM after 24 hrs by Annexin V-FITC/propidium iodide staining based flow cytometry (reference value: 1.1%); assay type: functional
[19] = tested on: A2780; assay: Induction of apoptosis in human A2780 cells assessed as late apoptotic cells at 5 uM after 24 hrs by Annexin V-FITC/propidium iodide staining based flow cytometry (reference value: 6.6%); assay type: functional
[20] = tested on: A2780; assay: Cytotoxicity against human A2780 cells assessed as morphological changes at 5 uM after 24 hrs by acridine orange/propidium iodide staining based fluorescence microscopic method; assay type: functional, cell-based

Compound	EC50 [6] [µM]	Activity [1] [%]	Activity [2]	Activity [3] [%]	Activity [4] [%]	EC50 [5] [µM]	Activity [7]	EC50 [8] [µM]	EC50 [9] [µM]	EC50 [10] [µM]	Activity [11] [%]	Activity [12]	EC50 [13] [µM]	Activity [14] [%]	Activity [15]	Activity [16] [%]	Activity [17]	Activity [18] [%]	Activity [19] [%]	Activity [20]
COC(=O)[C@]12CC[C@@H]([C@@H](C)N)[C@@H]1[C@H]1CC[C@@H]3[C@@]4(C)CC[C@H](OC(C)=O)C(C)(C)[C@@H]4CC[C@@]3(C)[C@]1(C)CC2	6.3	58.1	inactive	16.6	1.4	5.3	Active	5.1	4.1	5.6	23.7	Active	4.7							
COC(=O)[C@]12CC[C@@H]([C@@H](C)NC(C)=O)[C@@H]1[C@H]1CC[C@@H]3[C@@]4(C)CC[C@H](OC(C)=O)C(C)(C)[C@@H]4CC[C@@]3(C)[C@]1(C)CC2	27.6					22.9		21.4	27	16			27.3							
CC(=O)O[C@H]1CC[C@]2(C)[C@H]3CC[C@@H]4[C@H]5[C@H](/C(C)=N/O)CC[C@]5(C(=O)OCc5ccccc5)CC[C@@]4(C)[C@]3(C)CC[C@H]2C1(C)C	12.3					7.9		6.8	9	6.1			6.1							
C[C@@H](N)[C@@H]1CC[C@]2(C(=O)OCc3ccccc3)CC[C@]3(C)[C@H](CC[C@@H]4[C@@]5(C)CC[C@H](O)C(C)(C)[C@@H]5CC[C@]43C)[C@@H]12	5					10.1		5.6	7.5	7.3			7.5							

Stronger by EC50 [6], values ahead:

EC50 [6] [µM]	Compound	Activity [1] [%]	Activity [2]	Activity [3] [%]	Activity [4] [%]	EC50 [5] [µM]	Activity [7]	EC50 [8] [µM]	EC50 [9] [µM]	EC50 [10] [µM]	Activity [11] [%]	Activity [12]	EC50 [13] [µM]	Activity [14] [%]	Activity [15]	Activity [16] [%]	Activity [17]	Activity [18] [%]	Activity [19] [%]	Activity [20]
2.8	CC(=O)[C@@H]1CC[C@]2(C(=O)NCCN3CCCC3)CC[C@]3(C)[C@H](CC[C@@H]4[C@@]5(C)CC[C@H](O)C(C)(C)[C@@H]5CC[C@]43C)[C@@H]12					2.3		2.1	2.5	2.8			2.2	41.3	inactive	7.1	Active	4.2	47.4	Active
2.4	CC(=O)[C@@H]1CC[C@]2(C(=O)OCc3ccccc3)CC[C@]3(C)[C@H](CC[C@@H]4[C@@]5(C)CC[C@@H](N)C(C)(C)[C@@H]5CC[C@]43C)[C@@H]12					3.6		1.9	2.3	2.5			2.8							
1.5	CC(=O)[C@@H]1CC[C@]2(C(=O)OCc3ccccc3)CC[C@]3(C)[C@H](CC[C@@H]4[C@@]5(C)CC[C@H](N)C(C)(C)[C@@H]5CC[C@]43C)[C@@H]12					2.1		1.8	1.9	2.3			2.2							
1.2	CC(=O)OC[C@]12CC[C@@H]([C@@H](C)N)[C@@H]1[C@H]1CC[C@@H]3[C@@]4(C)CC[C@H](OC(C)=O)C(C)(C)[C@@H]4CC[C@@]3(C)[C@]1(C)CC2					2.3		2.1	2.2	4			2.5							
